Bridge positions count the residues as written; N and C are the ends. Square brackets hold non-standard residues; d marks the D form. Peptide text beside a SMILES is read from it. * marks the point of attachment. Ileψ(thiazoline)Cys = CC[C@H](C)[C@H](N)C1=N[C@H](C(=O)*)CS1; dOrn = NCCC[C@@H](N)C(=O)O
Experiments:
[1] = target: T1, ERp57 (Homo sapiens, UniProt P30101); test: Maleimide-polyethylene glycol-2-biotin (MPB) binding; conditions: 150 μM inhibitor, FIG. 2c, FIG. 8
T1 construct: FLAG; made in house; host or cells: Escherichia coli Origami B (DE3), pET-15b
T1 sequence (P30101 25-505): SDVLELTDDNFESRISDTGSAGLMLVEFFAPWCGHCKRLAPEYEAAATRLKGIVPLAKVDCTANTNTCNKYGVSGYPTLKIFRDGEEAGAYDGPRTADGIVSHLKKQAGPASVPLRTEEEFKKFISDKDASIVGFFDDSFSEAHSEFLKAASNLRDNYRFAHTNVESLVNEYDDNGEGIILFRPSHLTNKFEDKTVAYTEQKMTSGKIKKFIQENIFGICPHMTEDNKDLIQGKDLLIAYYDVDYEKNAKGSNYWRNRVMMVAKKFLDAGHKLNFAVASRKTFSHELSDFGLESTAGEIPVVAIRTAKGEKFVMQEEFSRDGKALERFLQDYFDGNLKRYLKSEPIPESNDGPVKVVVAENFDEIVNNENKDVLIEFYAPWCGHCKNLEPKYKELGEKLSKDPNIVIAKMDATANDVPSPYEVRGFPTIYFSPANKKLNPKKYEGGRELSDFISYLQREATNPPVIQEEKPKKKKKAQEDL
Description: (§1) Maleimide-Polyethanol glycol-2-Biotin (MPB) binding experiments were performed in a reaction volume of 37.5 μL with 5 μM of thiol isomerase or bovine serum albumin (BSA) in Tris-buffered saline (TBS), in the presence and absence of 1 mM of N-ethylmaleimide (NEM) or bacitracin, and 150 μM of the mentioned other inhibitors. The reaction mixture was incubated at 37° C. for 1 hour. Subsequently, the reaction mixtures were incubated with 25 μM of MPB. The labeling was performed for 20 minutes at 25° C. A total of 12.5 μL of 4× Laemmli Sample Buffer with 5% β-mercaptoethanol was added to each of the samples, followed by heating at 95° C. for 10 minutes. From each sample, 10 μL was loaded on a 12% SDS-PAGE gel, followed by transfer on a nitrocellulose membrane. After blocking the membrane with TBS-T containing 5% BSA for one hour, the membrane was incubated with a 1:2000 dilution of Cy5-tagged Streptavidin for an hour in the dark. Detection of the immunoblots was performed using ImageQuant LAS 4000 and analysis was performed using ImageQuant TL software.

[2] = target: T2, ERp5 (Homo sapiens, UniProt Q15084); test: as above; conditions: 150 μM inhibitor, FIG. 2c, FIG. 8
T2 construct: recombinant His-tagged full-length ERp5, ERp72 and PDI domain fragments; His; made in house; host or cells: Escherichia coli Origami B (DE3), pET-15b
T2 sequence (Q15084 20-440): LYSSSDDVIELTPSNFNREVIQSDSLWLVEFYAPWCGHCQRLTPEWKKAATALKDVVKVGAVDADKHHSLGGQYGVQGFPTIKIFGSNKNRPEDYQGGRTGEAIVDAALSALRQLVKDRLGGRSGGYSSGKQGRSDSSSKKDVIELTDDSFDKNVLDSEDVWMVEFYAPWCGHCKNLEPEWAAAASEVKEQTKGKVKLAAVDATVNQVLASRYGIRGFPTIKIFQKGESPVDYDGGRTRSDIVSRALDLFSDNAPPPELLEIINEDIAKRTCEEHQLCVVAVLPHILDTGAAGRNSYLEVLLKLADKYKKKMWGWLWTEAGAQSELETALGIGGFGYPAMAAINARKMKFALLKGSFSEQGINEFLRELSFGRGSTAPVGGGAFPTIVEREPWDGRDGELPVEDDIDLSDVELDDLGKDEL
Description: as §1

[3] = target: T3, thioredoxin (Homo sapiens, UniProt P10599); test: as above; conditions: 150 μM inhibitor, FIG. 2c, FIG. 8
T3 sequence (P10599 1-105): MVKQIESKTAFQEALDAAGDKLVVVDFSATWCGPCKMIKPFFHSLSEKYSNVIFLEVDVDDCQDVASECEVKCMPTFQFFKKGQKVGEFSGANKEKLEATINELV
Description: as §1

[4] = target: T4, PDI (Homo sapiens, UniProt P07237); test: Di-eosin-GSSG disulfide reductase assay; format: biochemical; conditions: for change of apparent KM in the di-eosin-GSSG assay of PDI reductase activity / change of apparent kcat in the di-eosin-GSSG assay of PDI reductase activity: FIG. 6d
T4 construct: FLAG; made in house; host or cells: Escherichia coli Origami B (DE3), pET-15b
Description: (§2) The probe di-eosin glutathione disulfide, di-eosin-GSSG, was prepared as previously described in Raturi, A., Vacratsis, P. O., Seslija, D., Lee, L. & Mutus, B., Biochem J 391, 351-357 (2005). Reductase activity of purified thiol isomerases and PDI domains was monitored in a 96-well fluorescence plate format. PDI, AGHA-PDI, ERpS, ERp57, ERp72 and PDI domains were assayed at 50 nM in the presence or absence of the indicated small molecules, peptides or cathepsin G. The assay included 100 mM potassium phosphate (pH 7.4) containing 2 mM EDTA, 5 μM DTT and 150 nM of the di-eosin GSSG probe. The increase in fluorescence was determined for 20 minutes by excitation at 520 nm and emission at 550 nm in a Synergy Biotek 4. The reduction of 150 nM di-eosin-GSSG by 5 μM DTT in the presence or absence of mentioned small molecules, peptides or proteins served as a negative control.
Michaelis Menten analysis was assayed using PDI at 20 nM and small molecules, peptides or cathepsin G at concentrations causing maximal augmentation under similar buffer conditions as described above. 8-point response curves were generated using a range of different di-eosin-GSSG concentrations (50-5000 nM). Enzyme kinetics analysis was performed using Graphpad Prism 5.0.

[5] = target: T1, ERp57; test: Insulin reductase assay, thiol isomerase selectivity; format: biochemical; conditions: FIG. 2
Description: (§3) The thiol isomerase-catalyzed reduction of insulin was assayed by measuring the increase in turbidity as detected at an optical density (OD) of 650 nm using a Spectramax M3 (Molecular Devices, Sunnyvale, Calif.). The validation assay consisted of 175 nM of PDI in a solution containing 100 mM potassium phosphate (pH 7.4) containing 0.2 mM bovine insulin, 2 mM EDTA, and 0.3 mM DTT (all purchased from Sigma Aldrich, St. Louis, Mo.), inhibitors were used at the concentrations indicated. The reaction was performed at 25° C. for one hour and thirty minutes. For assays of thiol isomerase selectivity, 11 nM PDI, ERp57 or Thioredoxin, or 33 nM ERpS were assayed in similar buffer conditions as described above and inhibitors were used at the indicated concentration. The reaction was performed at 37° C. for forty-five minutes. For assays of isolated domains studies, 400 nM protein was used, except for a, a′ and ab, in which 800 nM protein was used. The assay was performed in similar buffer conditions as described above. Bepristat 2a and N-(2,4-Dimethoxyphenyl)-N-(1-oxo-2-propyn-1-yl)-2-(2-thienyl)glycyl-glycine ethyl ester (PACMA-31) were used at a final concentration of 15 μM in these studies.

[6] = target: T2, ERp5; test: as above; format: biochemical; conditions: 10-fold IC50, FIG. 2
Description: as §3

[7] = target: T3, thioredoxin; test: as above; format: biochemical; conditions: 10-fold IC50, FIG. 2
Description: as §3

[8] = system: thrombus formation; conditions: literature; cited from earlier work
[9] = target: T5, full-length PDI (Homo sapiens, UniProt P07237); test: Small-angle X-ray scattering (SAXS); conditions: PDI complexed with compound; full-length oxidized PDI 40.0 Å, FIG. 5d
T5 construct: FLAG; made in house; host or cells: Escherichia coli Origami B (DE3), pET-15b
Description: Further purification of full-length PDI was achieved by gel filtration. PDI (1.5, 3.0 and 4.5 mg/mL) was dialyzed against 20 mM Tris, 150 mM NaCl, 5% glycerol (pH: 8.0) containing 0.5 mM bepristat 1b or 2b or DMSO control at 4° C. overnight. Evaluation by SAXS was performed on the SIBYLS beamline in the Advanced Light Source using a high throughput data collection method.

[10] = target: T1, ERp57; test: Di-eosin-GSSG disulfide reductase assay; format: biochemical
Description: as §2

[11] = target: T6, ERp72 (Homo sapiens, UniProt P13667); test: Di-eosin-GSSG disulfide reductase assay; format: biochemical
T6 construct: recombinant His-tagged full-length ERp5, ERp72 and PDI domain fragments; His; made in house; host or cells: Escherichia coli Origami B (DE3), pET-15b
T6 sequence (P13667 21-645): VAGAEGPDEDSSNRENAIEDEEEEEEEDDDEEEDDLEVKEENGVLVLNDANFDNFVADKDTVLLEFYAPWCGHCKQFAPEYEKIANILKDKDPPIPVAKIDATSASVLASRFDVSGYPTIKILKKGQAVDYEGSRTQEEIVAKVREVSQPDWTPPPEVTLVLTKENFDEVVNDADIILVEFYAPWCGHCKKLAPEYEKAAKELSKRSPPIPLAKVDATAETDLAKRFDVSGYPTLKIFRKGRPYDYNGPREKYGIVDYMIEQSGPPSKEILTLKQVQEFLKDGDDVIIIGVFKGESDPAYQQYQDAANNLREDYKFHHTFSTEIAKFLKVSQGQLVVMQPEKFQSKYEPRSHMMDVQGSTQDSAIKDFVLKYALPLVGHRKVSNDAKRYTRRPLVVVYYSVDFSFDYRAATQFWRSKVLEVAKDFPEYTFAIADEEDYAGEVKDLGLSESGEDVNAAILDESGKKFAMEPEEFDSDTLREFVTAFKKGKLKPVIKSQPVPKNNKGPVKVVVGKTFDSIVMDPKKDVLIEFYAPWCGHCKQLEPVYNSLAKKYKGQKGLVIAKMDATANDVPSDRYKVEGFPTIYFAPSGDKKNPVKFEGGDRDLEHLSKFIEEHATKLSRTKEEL
Description: as §2

[12] = target: T2, ERp5; test: Di-eosin-GSSG disulfide reductase assay; format: biochemical
Description: as §2

[13] = target: T4, PDI; conditions: cited from earlier work

T4 sequence (P07237 18-508): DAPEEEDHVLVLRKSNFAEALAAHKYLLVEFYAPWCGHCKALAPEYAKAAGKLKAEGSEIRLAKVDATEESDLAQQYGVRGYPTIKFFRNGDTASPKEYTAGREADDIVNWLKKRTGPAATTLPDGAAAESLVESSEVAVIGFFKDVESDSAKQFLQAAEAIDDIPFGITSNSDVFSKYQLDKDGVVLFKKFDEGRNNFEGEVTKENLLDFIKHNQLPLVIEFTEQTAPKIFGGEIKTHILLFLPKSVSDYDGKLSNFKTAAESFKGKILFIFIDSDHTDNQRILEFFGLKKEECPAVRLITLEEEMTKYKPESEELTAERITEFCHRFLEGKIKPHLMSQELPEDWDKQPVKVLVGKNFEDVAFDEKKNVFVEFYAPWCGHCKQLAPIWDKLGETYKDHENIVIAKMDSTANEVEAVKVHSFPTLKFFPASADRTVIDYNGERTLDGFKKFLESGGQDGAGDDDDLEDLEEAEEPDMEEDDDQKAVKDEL
T5 sequence (P07237 18-508): as above

Compound | cleavage of di-eosin-GSSG probe by PDI (reductase activity at catalytic cysteines) [4] | change of apparent KM in the di-eosin-GSSG assay of PDI reductase activity [4] | change of apparent kcat in the di-eosin-GSSG assay of PDI reductase activity [4] | cleavage of di-eosin-GSSG by ERp57 (catalytic activity) [10] | cleavage of di-eosin-GSSG by ERp72 (catalytic activity) [11] | cleavage of di-eosin-GSSG by ERp5 (catalytic activity) [12] | also measured
CC[C@H](C)[C@H](N)C1=N[C@H](C(=O)N[C@@H](CC(C)C)C(=O)N[C@H](CCC(=O)O)C(=O)N[C@H](C(=O)N[C@H]2CCCCNC(=O)[C@H](CC(N)=O)NC(=O)[C@@H](CC(=O)O)NC(=O)[C@H](Cc3cnc[nH]3)NC(=O)[C@@H](Cc3ccccc3)NC(=O)[C@H]([C@@H](C)CC)NC(=O)[C@@H](CCCN)NC2=O)[C@@H](C)CC)CS1 [bacitracin] ({Ileψ(thiazoline)Cys}-L[dE]IK[dOrn]I[dF]H[dD]N; lactam 4-C) | blocked PDI-mediated cleavage of di-eosin-GSSG | – | – | – | – | – | reaction of MPB with the catalytic cysteines of ERp57 [1]: interfered with the reaction of maleimide-polyethylene glycol-2-biotin (MPB); reaction of MPB with the catalytic cysteines of ERp5 [2]: interfered with the reaction of maleimide-polyethylene glycol-2-biotin (MPB); reaction of MPB with the catalytic cysteines of thioredoxin [3]: interfered with the reaction of maleimide-polyethylene glycol-2-biotin (MPB); inhibition of reductase activity of ERp57 [5]: showed activity against all thiol isomerases tested; inhibition of reductase activity of ERp5 [6]: showed activity against all thiol isomerases tested; inhibition of reductase activity of thioredoxin [7]: showed activity against all thiol isomerases tested; thrombus formation in vivo [8]: inhibits thrombus formation in vivo
CCOC(=O)c1c(CNCCN(CC)CC)n(-c2ccccc2)c2cc(Br)c(O)cc12 [bepristat 2b] | – | – | – | – | – | – | gyration radius (Rg) of PDI [9]: 35.9 Å
C[C@H](N)C(=O)NCC(=O)N[C@H]1CSSC[C@@H](C(=O)O)NC(=O)[C@H](CO)NC(=O)[C@H]([C@@H](C)O)NC(=O)[C@H](Cc2ccccc2)NC(=O)[C@H]([C@@H](C)O)NC(=O)[C@H](CCCCN)NC(=O)[C@H](Cc2c[nH]c3ccccc23)NC(=O)[C@H](Cc2ccccc2)NC(=O)[C@H](Cc2ccccc2)NC(=O)[C@H](CC(N)=O)NC(=O)[C@H](CCCCN)NC1=O [somatostatin, reference compound] | – | decreased the apparent KM | – | – | – | – | –
cathepsin G: a protein substrate of PDI | elicits enhanced reductase activity | decreased the apparent KM | None of them altered the apparent kcat | inhibited the catalytic activity of ERp5 and ERp57 to varying degrees | augmented the catalytic activity of ERp72 | inhibited the catalytic activity of ERp5 and ERp57 to varying degrees | –
mastoparan [reference compound] | enhanced the ability of PDI to cleave di-eosin-GSSG in a dose-dependent manner | decreased the apparent KM | None of them altered the apparent kcat | inhibited the catalytic activity of ERp5 and ERp57 to varying degrees | augmented the catalytic activity of ERp72 | inhibited the catalytic activity of ERp5 and ERp57 to varying degrees | PDI activity in RNase refolding assay [13]: inhibits PDI activity in an RNase refolding assay

— patent publication US20180370912A1, “COMPOUNDS AND METHODS FOR TREATING DISEASES MEDIATED BY PROTEIN DISULFIDE ISOMERASE” (Beth Israel Deaconess Medical Center, Inc., priority 2017, published 2018)
